EC50 data for 2 compounds are collected here from patent EP0478631B1, “TARGETTING AGENTS” (CANCER RESEARCH CAMPAIGN TECHNOLOGY LTD., priority 1989, dated 1991).

In this experiment the target is Cloudman S91. Nature of the experiment: Tyrosinase activity in vitro (release of tritiated water from 3,5-3H-tyrosine). To be noted: molar concentration giving a response equal to half the maximum; tyrosinase activity relative to melanotropin-free control; Cloudman S91 monolayers, 24 h + further 24 h with 3,5-³H-tyrosine; read-out: EC₅₀. In kind it is cell-based. How it is done:
Cloudman S91 were grown in monolayers to a density of approximately 25,000 cells cm⁻² in 25cm² culture flasks using 4 ml Ham's F10 medium supplemented with 10% heat inactivated foetal calf serum. The medium was replaced and 10⁻⁵ and 10⁻⁹ molar concentrations of the test or control compound added. After 24 h, medium and melantropins were renewed and 1»Ci, 3,5-³H-tyrosine included. The final specific activity of 3,5-³H-tyrosine incubation medium was 0.1 Ci/mmol.
After a further 24h, 0.2ml of the medium from each incubation were transferred to centrifuge tubes containing 1ml activated charcoal suspension (100 mg/ml in 0.1M citric acid). The tubes were vortexed and centrifuged at 700 x g for 5 min. Aliquots (0.5 ml) of each supernatant were transferred to scintillation vials and counted on a Packard Tri-Carb 300D scintillation counter. Aliquots (0.1ml) of the unextracted medium were also counted. Finally, the remaining medium was removed and the cell monolayer suspended in 1ml isotonic trypsin/EDTA. The dispersed cells were counted in a Coulter counter.
The amount of water generated from the tyrosine per 10⁵ cells was calculated and the results divided by the value obtained from the melanotropin-free control. The activities of the melanotropins were expressed as the molar concentrations required to give responses equal to half the maximum (EC₅₀) and are recorded in Table 1.

As to “alpha-melanocyte stimulating hormone [MSH]”, the EC50 was determined as 2.81 nM. Then `CCCC[C@H](NC(C)=O)C(=O)N[C@@H](CC(=O)O)C(=O)N[C@@H](Cc1c[nH]cn1)C(=O)N[C@H](Cc1ccccc1)C(=O)N[C@@H](CCCNC(=N)N)C(=O)N[C@@H](Cc1c[nH]c2ccccc12)C(=O)N[C@@H](CCCCN)C(N)=O` [MSH(4-10), Ac-[Nle⁴, Asp⁵, D-Phe⁷, Lys¹⁰] α-MSH₄₋₁₀-NH₂], with 0.74 nM.
